# Reference: PubChem BioAssay (NCI)
# Several values for one entry are separate records, joined by “and”; a condition that tells them apart may be missing. Equal values may be shown once.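 Assay format: 96-well plates, 48-hour exposure. GI50 marks 50% less growth. At the TGI there is no net growth.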
# Assays:
# Test in all cases: NCI-60 cell line screen, 48 h
# NCI-H522 lung = tested on: NCI-H522 lung
# SNB-75 CNS = tested on: SNB-75 CNS
# PC-3 prostate = tested on: PC-3 prostate
# RPMI-8226 leukemia = tested on: RPMI-8226 leukemia
# A549 NSCLC = tested on: A549 NSCLC
# CAKI-1 renal = tested on: CAKI-1 renal
# KM12 colon = tested on: KM12 colon
# SF-295 CNS = tested on: SF-295 CNS
# TK-10 renal = tested on: TK-10 renal
# NCI-H226 lung = tested on: NCI-H226 lung
SMILES,GI50 (NCI-H522 lung),TGI (NCI-H522 lung),GI50 (SNB-75 CNS),TGI (SNB-75 CNS),GI50 (PC-3 prostate),TGI (PC-3 prostate),GI50 (RPMI-8226 leukemia),TGI (RPMI-8226 leukemia),GI50 (A549 NSCLC),TGI (A549 NSCLC),GI50 (CAKI-1 renal),TGI (CAKI-1 renal),GI50 (KM12 colon),TGI (KM12 colon),GI50 (SF-295 CNS),TGI (SF-295 CNS),GI50 (TK-10 renal),TGI (TK-10 renal),TGI (NCI-H226 lung),GI50 (NCI-H226 lung)
COc1ccc(C(=O)OC2C(OC3C(O)COC(O[C@H]4C[C@H]5[C@@H]6CC=C7C[C@@H](O)CC[C@]7(C)[C@H]6CC[C@]5(C)[C@H]4[C@H](C)C(=O)CCC(C)C)C3OC(=O)C(C)C)OCC(O)C2O)cc1 (stereo partly drawn),0.0306 µM,0.273 µM,0.00698 µM,4.9 µM,0.00821 µM,0.446 µM,< 0.00275 µM,0.01 µM,0.0224 µM,4.58 µM,0.0172 µM,1.64 µM,0.0707 µM,4.77 µM,< 0.00275 µM,0.00385 µM,0.411 µM,6.24 µM,–,–
CC1=CC[C@@H]2[C@@H](CC[C@@]2(C)O)C(C)(C)[C@H]1CC[C@@H]1[C@@]2(C)CC[C@@H](O)C(C)(C)O[C@@H]2CC[C@]1(C)O,–,–,–,–,–,> 100 µM,–,52.3 µM,–,> 100 µM,–,54.2 µM,–,–,–,> 100 µM,–,> 100 µM,–,–
COC(=O)CCC(=O)Nc1cccc(C(F)(F)F)c1,–,> 100 µM,–,> 100 µM,–,–,–,> 100 µM,–,> 100 µM,–,> 100 µM,–,> 100 µM,–,> 100 µM,–,> 100 µM,–,–
CN(C(=N)c1ccccc1)c1ccccc1,–,–,–,> 100 µM,–,–,–,> 100 µM,–,> 100 µM,–,–,–,> 100 µM,–,> 100 µM,–,> 100 µM,> 100 µM,–
CC(=O)O[C@H]1CC[C@@]2(C)C(=CC[C@@H]3C2CC[C@]2(C)C(=O)NC(=O)CC32)C1 (stereo partly drawn),–,86.2 µM,–,> 100 µM,–,–,–,–,–,> 100 µM,–,> 100 µM,–,> 100 µM,–,> 100 µM,–,> 100 µM,> 100 µM,–
O=S1(=O)OCc2ccccc21,–,> 100 µM,–,> 100 µM,–,> 100 µM,–,> 100 µM,–,> 100 µM,–,–,–,> 100 µM,–,> 100 µM,–,> 100 µM,> 100 µM,–
Nc1nc2ccccc2c2[nH]c3ccccc3c12,0.901 µM,2.14 µM,5.49 µM,16.4 µM,–,–,–,–,1.09 µM,2.37 µM,–,–,1.04 µM,3.26 µM,–,–,1.57 µM,4.18 µM,37.2 µM,9.74 µM
Cc1c(C)n(CC(O)CNC2CCCCC2C)c2ccccc12 (stereo not drawn),–,–,10.1 µM,21.7 µM,13.4 µM,26.2 µM,9.48 µM,28.6 µM,16.9 µM,32.8 µM,12.4 µM,24.9 µM,15.3 µM,28.9 µM,14.1 µM,28.2 µM,–,–,35.9 µM,17.2 µM
C=C(c1ccccc1)[C@@]1(O)CCCC[C@H]1NC(c1ccccc1)c1ccccc1,–,21.6 µM,–,63.6 µM,–,–,–,25.5 µM,–,26.2 µM,–,21.4 µM,–,30.9 µM,–,25.1 µM,–,32.5 µM,22.6 µM,–
C/C(=N\NC(=O)C[n+]1ccccc1)c1sc(-c2nc(C)c(/C(C)=N/NC(=O)C[n+]3ccccc3)s2)nc1C,–,–,–,> 100 µM,–,–,–,> 100 µM,–,> 100 µM,–,> 100 µM,–,> 100 µM,–,> 100 µM,–,> 100 µM,> 100 µM,–
COc1ccc(C(=C(C#N)C#N)c2ccc(OC)cc2)cc1,–,> 100 µM,–,–,–,–,–,> 100 µM,–,> 100 µM,–,> 100 µM,–,> 100 µM,–,> 100 µM,–,> 100 µM,> 100 µM,–
CC12CCC(=O)N1c1cc([N+](=O)[O-])ccc1N2 (stereo not drawn),–,> 100 µM,–,> 100 µM,–,–,–,> 100 µM,–,> 100 µM,–,–,–,> 100 µM,–,> 100 µM,–,–,> 100 µM,–
CC1OC(OC23C(=O)CC(C)(O)CC2(O)C=CC2=C3C(=O)c3ccc(C4CC(OC5CCC(OC6CC(O)C(O)C(C)O6)C(C)O5)C(O)C(C)O4)c(O)c3C2=O)CCC1O (stereo not drawn),–,3.83 µM and 3.5 µM,–,32.5 µM and 29.9 µM,–,–,–,> 100 µM,–,82.1 µM and 65.2 µM,–,33.5 µM and 34.5 µM,–,31.2 µM and 27.5 µM,16.5 µM and 3.06 µM,30.4 µM and 9.87 µM,–,36.5 µM and 31.6 µM,38.5 µM and 35.5 µM,–
C=CCNC(=O)ON1C(=O)CCC1=O,–,> 100 µM,–,> 100 µM,–,–,–,> 100 µM,–,> 100 µM,–,–,–,> 100 µM,–,> 100 µM,–,> 100 µM,–,–
CO[C@H](C(=O)O[C@H]1C(=O)N2CCC3CCC1C32C)c1ccccc1 (stereo partly drawn),–,> 100 µM,–,> 100 µM,–,–,–,> 100 µM,–,> 100 µM,–,> 100 µM,–,> 100 µM,–,> 100 µM,–,–,> 100 µM,–
CCCCCCCCCCCCCCCCCc1cc(Cl)nc(Cl)n1,–,–,–,> 100 µM,–,> 100 µM,–,> 100 µM,–,> 100 µM,–,–,–,> 100 µM,–,> 100 µM,–,> 100 µM,> 100 µM,–
N#CC1=C(c2ccccc2)NN(Cc2ccccc2)C(c2ccc(Cl)cc2)CC1=O (stereo not drawn),–,38.5 µM,–,46 µM,–,–,–,64.8 µM,–,62.3 µM,–,76.7 µM,–,82.1 µM,–,> 100 µM,–,> 100 µM,> 100 µM,–
O=C1C[C@@H]2[C@@H](C=CC23CC3)N1O,–,> 100 µM,–,> 100 µM,–,–,–,> 100 µM,–,> 100 µM,–,> 100 µM,–,> 100 µM,–,> 100 µM,–,> 100 µM,> 100 µM,–
COc1ccc2nc(-c3ccc(Cl)cc3)cc(-c3nnc(SCC(=O)Nc4ccc(/C(C)=N\O)cc4)o3)c2c1,1.2 µM,3.83 µM,1.08 µM,6.34 µM,1.29 µM,2.97 µM,2.18 µM,> 50 µM,1.23 µM,3.21 µM,–,–,1.53 µM,5.46 µM,1.09 µM,3.08 µM,1.61 µM,8.05 µM,14.4 µM,3.86 µM
COC1=CC(=O)c2c(O)c3c(c(O)c2C1=O)OC1(Oc2c(cc4cc(C)oc(=O)c4c2O)CC1O)C3O (stereo not drawn),–,54.6 µM,–,> 100 µM,–,> 100 µM,–,> 100 µM,–,> 100 µM,–,53.9 µM,–,> 100 µM,–,> 100 µM,–,> 100 µM,–,–
CC(=O)CC(=O)ON(C)C(C)=O,–,> 100 µM,–,> 100 µM,–,–,–,> 100 µM,–,> 100 µM,–,> 100 µM,–,> 100 µM,–,> 100 µM,–,> 100 µM,> 100 µM,–
